For 16 compounds, EC50 results are on record in patent US12667101B2, “Picolinamide derivatives useful as agricultural fungicides” (GLOBACHEM NV, priority 2019, dated 2026).

SMILES strings stand for the structures. In brackets after ≈: the same amount, converted by molar mass.

A word on the EC50: it is the midpoint of the concentration-response curve.

The subject of the assay is Zymoseptoria tritici. Briefly: Fungicidal activity screen in amended agar, 96 well plates. The conditions noted are these: 168 h, 1% potato dextrose agar amended to 20, 2, 0.2 and 0.02 ppm, 10,000 spores/mL, 18° C., assessed after 7 days, read-out: Zymoseptoria (EC50 ranking of fungal growth vs DMSO controls). It is filed as cell-based. As to the method:
Compounds were screened in 96 well plates with 10 compounds per plate. Each compound was screened using agar amended to 20, 2, 0.2 and 0.02 ppm of the test material. Proline at 50 and 10 ppm and 0.2% DMSO were used respectively as positive and negative controls. Each test concentration and standard were tested twice on a plate.
Compounds were screened against Zymoseptoria tritici. The agar used in the test was 1% potato dextrose agar. Sufficient spores were added to the appropriate agar to give 10,000 spores/mL agar.
A ×10 stock solution in 2% DMSO was produced for each dose i.e. 200, 20, 2 and 0.2 ppm, and 10 μl of this added to the appropriate wells on the plate. An equivalent amount of 2% DMSO and Proline stock at 500 and 100 ppm were added for the controls. To each well, 90 μl of the appropriate agar spore suspension was added to give the final well concentrations outlined in the first paragraph.
Plates were incubated at room temperature (18° C.) and assessed after 7 days.
The amount of fungal growth in each well was compared to the DMSO controls and scored according to the following key: • A—EC50<2 ppm • B—2≤EC50<20 • C—EC50≥20 • D—No activity detected at the highest dose tested • NT—Not tested
Consider `COc1ccnc(C(=O)Nc2ccc3cc(Br)ccc3n2)c1OC(C)=O` [Example 17, 2-((6-bromoquinolin-2-yl)carbamoyl)-4-methoxypyridin-3-yl acetate], for which the EC50 was 2 to 20 µg/mL.
For `COc1ccnc(C(=O)Nc2ccc3cc(-c4ccccc4)ccc3n2)c1OC(C)=O` [Example 18, 4-methoxy-2-((6-phenylquinolin-2-yl)carbamoyl)pyridin-3-yl acetate], the EC50 fell in the range of 2 to 20 µg/mL.
Then `COc1ccnc(C(=O)Nc2ccc3nc(N(C)c4ccccc4Cl)ccc3c2)c1O` [Example 23, N-(2((2-chlorophenyl)(methyl)amino)quinolin-6-yl)-3-hydroxy-4-methoxypicolinamide], with under 2 µg/mL; and `COc1ccnc(C(=O)Nc2ccc3nc(Oc4ccc(F)cc4)ccc3c2)c1O` [Example 2, N-(2-(4-fluorophenoxy)quinolin-6-yl)-3-hydroxy-4-methoxypicolinamide], with under 2 µg/mL; and `COc1ccnc(C(=O)Nc2ccc3nc(OC(C)C)ccc3c2)c1O` [Example 5, 3-hydroxy-N-(2-isopropoxyquinolin-6-yl)-4-methoxypicolinamide], with under 2 µg/mL.
Then `COc1ccnc(C(=O)Nc2ccc3cc(Cc4ccccc4)ccc3n2)c1O` [Example 14, N-(6-benzylquinolin-2-yl)-3-hydroxy-4-methoxypicolinamide], with at least 20 µg/mL; and `CCCCCc1cc(Oc2ccc(F)cc2)nc2ccc(NC(=O)c3nccc(OC)c3OC(C)=O)cc12` [Example 31, 2-((2-(4-fluorophenoxy)-4-pentylquinolin-6-yl)carbamoyl)-4-methoxypyridin-3-yl acetate], with at least 20 µg/mL.
Then `COc1ccnc2c(=O)n(-c3ccc4nc(OC(C)C(C)C)ccc4c3)c(=S)oc12` (stereo not shown) [Example 39, 8-methoxy-3-(2-((3-methylbutan-2-yl)oxy)quinolin-6-yl)-2-thioxo-2,3-dihydro-4H-pyrido[2,3-e][1,3]oxazin-4-one], with at least 20 µg/mL.
Take `COc1ccnc(C(=O)Nc2ccc3nc(Cl)ccc3c2)c1O` [Example 10, N-(2-chloroquinolin-6-yl)-3-hydroxy-4-methoxypicolinamide]: the EC50 is at least 20 µg/mL.
Then `CCCCOc1ccc2cc(NC(=O)c3nccc(OC)c3O)ccc2n1` [Example 4, N-(2-butoxyquinolin-6-yl)-3-hydroxy-4-methoxypicolinamide], with 2 to 20 µg/mL (≈ 5.44 to 54.4 µM); and `CCC(C)Oc1ccc2cc(-n3c(=S)oc4c(OC)ccnc4c3=O)ccc2n1` (stereo not shown) [Example 38, 3-(2-(sec-butoxy)quinolin-6-yl)-8-methoxy-2-thioxo-2,3-dihydro-4H-pyrido[2,3-e][1,3]oxazin-4-one], with 2 to 20 µg/mL (≈ 4.88 to 48.8 µM); and `COc1ccnc(C(=O)Nc2ccc3nc(Sc4ccccc4Cl)ccc3c2)c1OC(C)=O` [Example 33, 2-((2-((2-chlorophenyl)thio)quinolin-6-yl)carbamoyl)-4-methoxypyridin-3-yl acetate], with at least 20 µg/mL.
Under `COc1ccnc2c(=O)n(-c3ccc4nc(Sc5ccc(F)cc5)ccc4c3)c(=S)oc12` [Example 37, 3-(2-((4-fluorophenyl)thio)quinolin-6-yl)-8-methoxy-2-thioxo-2,3-dihydro-4H-pyrido[2,3-e][1,3]oxazin-4-one] stands under 2 µg/mL; under `COc1ccnc(C(=O)Nc2ccc3nc(Sc4ccc(F)cc4)ccc3c2)c1O` [Example 9, N-(2-((4-fluorophenyl)thio)quinolin-6-yl)-3-hydroxy-4-methoxypicolinamide], under 2 µg/mL; under `COc1ccnc2c(=O)n(-c3ccc4nc(N(C)c5cccnc5Cl)ccc4c3)c(=S)oc12` [Example 46, 3-(2-((2-chloropyridin-3-yl)(methyl)amino)quinolin-6-yl)-8-methoxy-2-thioxo-2,3-dihydro-4H-pyrido[2,3-e][1,3]oxazin-4-one], at least 20 µg/mL.
Then `COc1ccnc(C(=O)Nc2ccc3nc(OC(C)C(C)C)ccc3c2)c1O` (stereo not shown) [Example 6, 3-hydroxy-4-methoxy-N-(2-((3-methylbutan-2-yl)oxy)quinolin-6-yl)picolinamide], with under 2 µg/mL.
